The values below come from patent US20220315624A1, “THIOSTREPTON ANALOGS AND METHODS OF MAKING AND USING SAME” (YALE UNIVERSITY, priority 2019, published 2022).

≈ marks a conversion by molar mass, not a printed value. Like-named read-outs stand apart in the source and are kept apart here.

For test [1], the system named is S. pneumoniae ATCC 49619 PISP. As to conditions: range in parentheses; cited from earlier work.
Test [2] deals with E. faecalis ATCC 29212 VSE. Conditions: range in parentheses; cited from earlier work.
A further test concerns S. pyogenes ATCC 19615. Nature of the test: MIC broth microdilution. Format: cell-based. Conditions: Streptococcus pyogenes, ATCC19615, 20 h. The method in brief:
(§1)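 CLSI broth microdilution in cation-adjusted Mueller Hinton broth (streptococci: plus 3% lysed horse blood), inoculum ~5.0×10^5 CFU/mL, 1% final DMSO. Incubated 35° C. for 16-20 hr, streptococci 20-24 hr; vancomycin read at 24 hr for staphylococci and enterococci. MIC read as lowest concentration inhibiting visible growth.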
In general terms: In broth dilution the organism is exposed to a series of concentrations in liquid medium.

The subject of the next test is S. aureus MMX 8088 MRSA. Nature of the test: MIC broth microdilution. The format is cell-based. Conditions: Staphylococcus aureus. The method in brief:
as §1

The test system of the next test is E. faecalis MMX 486 VRE. Nature of the test: MIC broth microdilution. Format: cell-based. Conditions: Enterococcus faecalis. The method in brief:
as §1

In test [3] the test system is E. faecalis ATCC 29212 VSE. Nature of the test: MIC broth microdilution. Format: cell-based. Conditions: Enterococcus faecalis, ATCC29212. The method in brief:
as §1

A further test deals with E. faecium MMX 708 VSE. Nature of the test: MIC broth microdilution. Conditions: Enterococcus faecium, MMX708VSE. Format: cell-based. The method in brief: as §1
Test [4] deals with S. pneumoniae ATCC 49619 PISP. The test can be described thus: MIC broth microdilution. Conditions: Streptococcus pneumoniae, ATCC49619, 20 h. The format is cell-based. The method in brief:
as §1

The test system of a further test is E. faecium MMX 485 VRE. The test can be described thus: MIC broth microdilution. The format is cell-based. As to conditions: Enterococcus faecium. The method in brief: as §1
Test [5] deals with S. aureus ATCC 29213 MSSA. Nature of the test: MIC broth microdilution. Conditions: Staphylococcus aureus. Format: cell-based. The gist of the method: as §1
Test [6] relates to E. coli ATCC 25922. Nature of the test: MIC broth microdilution. The format is cell-based. As to conditions: Escherichia coli, ATCC25922. The method in brief:
as §1

Test [7] deals with S. aureus ATCC 29213 MSSA. As to conditions: range in parentheses; cited from earlier work.
For test [8], the system named is E. coli ATCC 25922. As to conditions: range in parentheses; cited from earlier work.

On to `CN[C@H](CC(C)C)C(=O)N[C@H]1C(=O)N[C@@H](CC(N)=O)C(=O)N[C@H]2C(=O)N[C@H]3C(=O)N[C@H](C(=O)N[C@H](C(=O)O)c4cc(O)cc(O)c4-c4cc3ccc4O)[C@H](O)c3ccc(c(Cl)c3)Oc3cc2cc(c3O[C@@H]2O[C@H](CO)[C@@H](O)[C@H](O)[C@H]2O[C@H]2C[C@](C)(N)[C@H](O)[C@H](C)O2)Oc2ccc(cc2Cl)[C@H]1O` [Vancomycin, reference compound], for which the “CLSI quality control range (MIC)” value was 0.12 to 0.5 µg/mL in test [1], 1 to 4 µg/mL in test [2] and 0.5 to 2 µg/mL in [7]. The MIC (as a rule, the least concentration at which growth counts as inhibited) against S. pyogenes ATCC 19615 was 0.25 µg/mL (≈ 0.173 µM); against S. aureus MMX 8088 MRSA (MRSA) it was 1 µg/mL (≈ 0.69 µM); with E. faecalis MMX 486 VRE (VRE), greater than 32 µg/mL; in test [3], 2 µg/mL (≈ 1.38 µM); against E. faecium MMX 708 VSE it was 0.25 µg/mL (≈ 0.173 µM); in test [4] it was 0.12 µg/mL (≈ 0.0828 µM). Besides, the MIC against E. faecium MMX 485 VRE (VRE) is greater than 32 µg/mL; in test [5] it was 1 µg/mL (≈ 0.69 µM); in the test on E. coli ATCC 25922 [6], greater than 64 µg/mL.
Turning to `CC(C)(O/N=C(\C(=O)N[C@@H]1C(=O)N2C(C(=O)[O-])=C(C[n+]3ccccc3)CS[C@H]12)c1csc(N)n1)C(=O)O` [Ceftazidime, reference compound], the “CLSI quality control range (MIC)” value with E. coli ATCC 25922 [8] is 0.06 to 0.5 µg/mL; in [7] it was 4 to 16 µg/mL. Further, the MIC with S. pyogenes ATCC 19615 (S. pyogenes ATCC 19615, CAMHB with 3% lysed horse blood, read-out: MIC) is 0.12 µg/mL (≈ 0.22 µM); in the test on S. aureus MMX 8088 MRSA (S. aureus MMX 8088 MRSA, CAMHB, read-out: MIC), greater than 32 µg/mL; in the test with E. faecalis MMX 486 VRE (E. faecalis MMX 486 VRE, CAMHB, read-out: MIC), greater than 32 µg/mL; in test [3] (E. faecalis ATCC 29212 VSE, CAMHB, read-out: MIC) it was greater than 32 µg/mL; in the test with E. faecium MMX 708 VSE (E. faecium MMX 708 VSE, CAMHB, read-out: MIC), greater than 32 µg/mL; in test [4] (S. pneumoniae ATCC 49619 PISP, CAMHB with 3% lysed horse blood, read-out: MIC), 0.5 µg/mL (≈ 0.915 µM). The MIC in the test with E. faecium MMX 485 VRE (E. faecium MMX 485 VRE, CAMHB, read-out: MIC) is greater than 32 µg/mL; in test [5] (S. aureus ATCC 29213 MSSA, CAMHB, read-out: MIC), 8 µg/mL (≈ 14.6 µM); in the test on E. coli ATCC 25922 [6] (E. coli ATCC 25922, CAMHB, read-out: MIC) it was 0.25 µg/mL (≈ 0.457 µM).
